Here are results for one compound from patent US11919873B1, “1,3-benzothiazol-2-yl-N′-(benzoyloxy)ethanimidamide as an antitumor and antimicrobial compound” (priority 2023, dated 2024).

Series [1] deals with human prostate cancer cells (PC3). Briefly: Assessment of cytotoxicity by SRB assay, PC3. In kind it is cell-based. The settings on record: 72 h, 0.01 μM to 100 μM, result in words only. How it is done:
(§1) The human prostate cancer cells (PC3) and human osteosarcoma cells (MG-63) were obtained from Nawah Scientific Inc. (Mokatam, Cairo, Egypt) and cultured in DMEM (Dulbecco's modified eagle's medium), Gibco, USA, supplemented with fetal bovine serum (FBS) at a concentration of 10% and 100 U/mL of penicillin and streptomycin (PS). The cells were incubated at 37° C. in a humidified environment that contained 5% CO2. Cells were seeded in 96-well plates as aliquots of 100 μL cell suspension and incubated in a complete media for 24 h. Afterward, cells were treated with 3-(4-chlorophenyl)-5-{[5-methyl-2-(propan-2-yl)phenoxy]methyl}-1,2,4-oxadiazole at diverse concentrations ranging from 0.01 μM to 100 μM for 72 h. Then, cells were fixed at 4° C. for one hour with 150 μL of 10% trichloroacetic acid (TCA). […] Then, 150 μL of Tris pH 10.5 (10 mM) was added, and the absorbance was measured at 540 nm using a BMG LABTECH®—FLUOstar Omega microplate reader (Ortenberg, Germany). Half maximal inhibitory concentrations (IC50) values were calculated for each experiment using GraphPad Prism 6 software. […] The inhibition was calculated using the following equation: Inhibition %=100−Average Viability The anticancer activity of 1,3-benzothiazol-2-yl-N′-(benzoyloxy)ethanimidamide was assessed against highly aggressive androgen-independent metastatic human prostate cancer cells (PC3) and osteosarcoma (MG-63) cells.

For series [2], the system named is human osteosarcoma cells (MG-63). Briefly: Assessment of cytotoxicity by SRB assay, MG-63. In kind it is cell-based. The settings on record: 72 h, 0.01 μM to 100 μM, result in words only. As to the method:
as §1
(In general: In SRB staining, fixed cells bind dye roughly in proportion to their protein.)

Series [3] relates to Bacillus cereus, Staphylococcus aureus, Pseudomonas aeruginosa, Escherichia coli, Aspergillus flavus, Chrysosporium keratinophilum. Nature of the series: Agar plate disc-diffusion antimicrobial test. To be noted: 10 μL of 10 mg/mL in DMSO per disc, bacteria and fungi, result in words only. In kind it is cell-based. How it is done: The agar plate disc-diffusion method was applied. Sterilized filter papers (6 mm in diameter) were wetted with 10 μL of a solution of each compound to be tested, containing 10 mg/mL in DMSO, and the discs were allowed to air dry. The discs were then placed onto the surface of agar plates (nutrient agar for bacteria and Sabouraud's dextrose agar for fungi) and seeded with the test organism. Each plate contained 15 mL of the agar medium, previously seeded with 0.2 mL of the broth culture of each organism pre-grown for 18 hours. The plates were incubated at 37° C. for 48 hours, and 72 hours for fungi. The inhibition zones were measured in mm. Discs impregnated with DMSO were used as a control, and its inhibition zone was subtracted from the tested compound actual inhibition zone. In particular, the present 1,3-benzothiazol-2-yl-N′-(benzoyloxy)ethanimidamide was screened against gram positive bacteria, namely Bacillus cereus and Staphylococcus aureus, and gram-negative bacterial strains, namely Pseudomonas aeruginosa and Escherichia coli, while the antifungal activity was screened against Aspergillus flavus and Chrysosporium keratinophilum.
In general terms: Agar diffusion results depend on both activity and mobility in agar.

Regarding `N/C(Cc1nc2ccccc2s1)=N\OC(=O)c1ccccc1` [1,3-benzothiazol-2-yl-N′-(benzoyloxy)ethanimidamide], the melting point fell in the range of 153 to 155 °C. The “antiproliferative activity against PC3 cells” value in series [1] is on record as “excellent antiproliferative activities”. Also, in series [2], the “antiproliferative activity against MG-63 cells” value is “excellent antiproliferative activities”. For the same compound, the “antimicrobial activity against different microbes” value in series [3] is listed as “excellent antimicrobial activities”.

As usually defined, the melting point is the temperature of the solid-liquid transition.
